Results: patent US20260042731A1, “(2,4-DICHLOROPHENOXY)ACETIC ACID ANALOGS” (CORTEVA AGRISCIENCE LLC, priority 2022, published 2026)
Where two headings read alike, the source gives them in different places.

How the values were obtained:
[1] = tested on: weeds ABUTH, AMATA, AMBEL, CHEAL, ERICA; experiment: Postemergence herbicide evaluation, overall average % weed control (ABUTH, AMATA, AMBEL, CHEAL, ERICA); assay type: in vivo; settings: post-emergence, read-out: Overall Ave % Weed Control; for pest or weed control at 280 g/ha: 280 g ae/ha; for pest or weed control at 560 g/ha: 560 g ae/ha
[2] = tested on: Chenopodium album (CHEAL), common lambsquarters; experiment: Postemergence herbicide evaluation, growth of Chenopodium album (CHEAL); assay type: in vivo; settings: Chenopodium album, post-emergence, read-out: Ave. CHEAL, percent reduction in plant size relative to the untreated control; for pest or weed control at 280 g/ha: 280 g ae/ha; for pest or weed control at 560 g/ha: 560 g ae/ha
[3] = tested on: Ambrosia artemisiifolia (AMBEL), common ragweed; experiment: Postemergence herbicide evaluation, growth of Ambrosia artemisiifolia (AMBEL); assay type: in vivo; settings: Ambrosia artemisiifolia, post-emergence, read-out: AVE. AMBEL, percent reduction in plant size relative to the untreated control; for pest or weed control at 280 g/ha: 280 g ae/ha; for pest or weed control at 560 g/ha: 560 g ae/ha
[4] = tested on: glyphosate resistant Conyza canadensis (L.) (ERICA), horseweed; experiment: Postemergence herbicide evaluation, growth of Conyza canadensis (ERICA); assay type: in vivo; settings: Erigeron canadensis, post-emergence, read-out: Ave. ERICA, percent reduction in plant size relative to the untreated control; for pest or weed control at 280 g/ha: 280 g ae/ha; for pest or weed control at 560 g/ha: 560 g ae/ha
[5] = tested on: Common Lambsquarters (CHEAL); experiment: Greenhouse post-emergence mixture trials, percent visual control; assay type: in vivo; settings: CHEAL, 21 DAA
[6] = tested on: Amaranthus rudis (AMATA), tall water hemp; experiment: Postemergence herbicide evaluation, growth of Amaranthus rudis (AMATA); assay type: in vivo; settings: Amaranthus tuberculatus, post-emergence, read-out: Ave. AMATA, percent reduction in plant size relative to the untreated control; for pest or weed control at 280 g/ha: 280 g ae/ha; for pest or weed control at 560 g/ha: 560 g ae/ha
[7] = Volatility of compounds measured by thermogravimetric analysis (TGA); assay type: physicochemical
[8] = tested on: Abutilon theophrasti (ABUTH), velvetleaf; experiment: Postemergence herbicide evaluation, growth of Abutilon theophrasti (ABUTH); assay type: in vivo; settings: Abutilon theophrasti, post-emergence, read-out: AVE. ABUTH, percent reduction in plant size relative to the untreated control; for pest or weed control at 280 g/ha: 280 g ae/ha; for pest or weed control at 560 g/ha: 560 g ae/ha
Corn (ZEAMX) = experiment: Greenhouse post-emergence mixture trials, percent visual control; assay type: in vivo; settings: ZEAMX, 21 DAA
Velvetleaf (ABUTH) = experiment: as above; assay type: in vivo; settings: ABUTH, 21 DAA

O=C(COc1ccc(Cl)cc1Cl)Nc1ccon1 [Compound D2, 2-(2,4-Dichlorophenoxy)-N-(isoxazol-3-yl)acetamide]
pest or weed control at 280 g/ha ([1]; 168 h, 7 DAA): 71% | pest or weed control at 560 g/ha ([1]; 168 h, 7 DAA): 77% | pest or weed control at 280 g/ha ([1]; 336 h, 14 DAA): 83% | pest or weed control at 560 g/ha ([1]; 336 h, 14 DAA): 92% | pest or weed control at 280 g/ha ([1]; 504 h, 21 DAA): 88% | pest or weed control at 560 g/ha ([1]; 504 h, 21 DAA): 98% | pest or weed control at 280 g/ha ([2]; 168 h, 7 DAA): 70% | pest or weed control at 560 g/ha ([2]; 168 h, 7 DAA): 73% | pest or weed control at 280 g/ha ([2]; 336 h, 14 DAA): 73% | pest or weed control at 560 g/ha ([2]; 336 h, 14 DAA): 88% | pest or weed control at 280 g/ha ([2]; 504 h, 21 DAA): 78% | pest or weed control at 560 g/ha ([2]; 504 h, 21 DAA): 97% | pest or weed control at 280 g/ha ([3]; 168 h, 7 DAA): 68% | pest or weed control at 560 g/ha ([3]; 168 h, 7 DAA): 73% | pest or weed control at 280 g/ha ([3]; 336 h, 14 DAA): 89% | pest or weed control at 560 g/ha ([3]; 336 h, 14 DAA): 97% | pest or weed control at 280 g/ha ([3]; 504 h, 21 DAA): 100% | pest or weed control at 560 g/ha ([3]; 504 h, 21 DAA): 97% | pest or weed control at 280 g/ha ([4]; 168 h, 7 DAA): 68% | pest or weed control at 560 g/ha ([4]; 168 h, 7 DAA): 73% | pest or weed control at 280 g/ha ([4]; 336 h, 14 DAA): 88% | pest or weed control at 560 g/ha ([4]; 336 h, 14 DAA): 94% | pest or weed control at 280 g/ha ([4]; 504 h, 21 DAA): 91% | pest or weed control at 560 g/ha ([4]; 504 h, 21 DAA): 99% | % Control ([5]; Trial Bridge 2, compound 560 g ae/ha + Saflufenacil 75 g ai or ae/ha): 100% | pest or weed control at 280 g/ha ([6]; 168 h, 7 DAA): 70% | pest or weed control at 560 g/ha ([6]; 168 h, 7 DAA): 78% | pest or weed control at 280 g/ha ([6]; 336 h, 14 DAA): 85% | pest or weed control at 560 g/ha ([6]; 336 h, 14 DAA): 92% | pest or weed control at 280 g/ha ([6]; 504 h, 21 DAA): 94% | pest or weed control at 560 g/ha ([6]; 504 h, 21 DAA): 97% | TGA Data (rate of weight loss, volatility) [7]: 0.2 µg/min | pest or weed control at 280 g/ha ([8]; 168 h, 7 DAA): 78% | pest or weed control at 560 g/ha ([8]; 168 h, 7 DAA): 88% | pest or weed control at 280 g/ha ([8]; 336 h, 14 DAA): 83% | pest or weed control at 560 g/ha ([8]; 336 h, 14 DAA): 93% | pest or weed control at 280 g/ha ([8]; 504 h, 21 DAA): 80% | pest or weed control at 560 g/ha ([8]; 504 h, 21 DAA): 99% | % Control (Corn (ZEAMX); Trial Bridge 1, compound 1120 g ae/ha + Glufosinate 600 g ai or ae/ha): 5% | plant injury at 560 g/ha (Corn (ZEAMX); Zea mays, post-emergence, 504 h, compound 560 g ae/ha, no mixing partner, Trial Bridge 3): 5%

CC(C)N(C)S(=O)(=O)NC(=O)c1cc(-n2c(=O)cc(C(F)(F)F)n(C)c2=O)c(F)cc1Cl [Saflufenacil, reference compound]
pest or weed control at 50 g/ha ([5]; Chenopodium album, post-emergence, 504 h, Trial 1, Trt 9, B2 0 g ae/ha, Saflufenacil 50 g ai or ae/ha alone): 95% | pest or weed control at 75 g/ha ([5]; Chenopodium album, post-emergence, 504 h, Trial 1, Trt 13, B2 0 g ae/ha, Saflufenacil 75 g ai or ae/ha alone): 98% | pest or weed control at 25 g/ha (Velvetleaf (ABUTH); Abutilon theophrasti, post-emergence, 504 h, Trial 1, Trt 5, B2 0 g ae/ha, Saflufenacil 25 g ai or ae/ha alone): 100% | pest or weed control at 50 g/ha (Velvetleaf (ABUTH); Abutilon theophrasti, post-emergence, 504 h, Trial 1, Trt 9, B2 0 g ae/ha, Saflufenacil 50 g ai or ae/ha alone): 100% | pest or weed control at 75 g/ha (Velvetleaf (ABUTH); Abutilon theophrasti, post-emergence, 504 h, Trial 1, Trt 13, B2 0 g ae/ha, Saflufenacil 75 g ai or ae/ha alone): 100% | plant injury at 50 g/ha (Corn (ZEAMX); Zea mays, post-emergence, 504 h, Trial 1 Trt 9, B2 0 g ae/ha, Saflufenacil 50 g ai or ae/ha alone): 50% | plant injury at 75 g/ha (Corn (ZEAMX); Zea mays, post-emergence, 504 h, Trial 1 Trt 13, B2 0 g ae/ha, Saflufenacil 75 g ai or ae/ha alone): 45%

Cc1nn(-c2cc(NS(C)(=O)=O)c(Cl)cc2Cl)c(=O)n1C(F)F [Sulfentrazone, N-[2,4-dichloro-5-[4-(difluoromethyl)-4,5-dihydro-3-methyl-5-oxo-1H-1,2,4-triazol-1-yl]phenyl]-methane-sulfonamide, reference compound]
pest or weed control at 140 g/ha ([5]; Chenopodium album, post-emergence, 504 h, Trial Bridge 3, Sulfentrazone 140 g ai/ha alone (B2 rate 0)): 99% | pest or weed control at 210 g/ha ([5]; Chenopodium album, post-emergence, 504 h, Trial Bridge 3, Sulfentrazone 210 g ai/ha alone (B2 rate 0)): 88% | pest or weed control at 420 g/ha ([5]; Chenopodium album, post-emergence, 504 h, Trial Bridge 3, Sulfentrazone 420 g ai/ha alone (B2 rate 0)): 100% | pest or weed control at 210 g/ha ([5]; Chenopodium album, post-emergence, 504 h, Trial 1, Trt 21, B2 0 g ae/ha, Sulfentrazone 210 g ai or ae/ha alone): 100% | pest or weed control at 420 g/ha ([5]; Chenopodium album, post-emergence, 504 h, Trial 1, Trt 25, B2 0 g ae/ha, Sulfentrazone 420 g ai or ae/ha alone): 99% | % Control (Velvetleaf (ABUTH); Sulfentrazone 210 g ai/ha alone (compound rate 0 g ae/ha), Trial Bridge 3): 100% | pest or weed control at 140 g/ha (Velvetleaf (ABUTH); Abutilon theophrasti, post-emergence, 504 h, Sulfentrazone 140 g ai/ha alone (compound rate 0 g ae/ha), Trial Bridge 3): 98% | pest or weed control at 210 g/ha (Velvetleaf (ABUTH); Abutilon theophrasti, post-emergence, 504 h, Sulfentrazone 210 g ai/ha alone (compound rate 0 g ae/ha), Trial Bridge 3): 100% | pest or weed control at 216 g/ha (Velvetleaf (ABUTH); Abutilon theophrasti, post-emergence, 504 h, Sulfentrazone 216 g ai/ha alone (compound rate 0 g ae/ha), Trial Bridge 3): 8% | pest or weed control at 420 g/ha (Velvetleaf (ABUTH); Abutilon theophrasti, post-emergence, 504 h, Trial 1, Trt 25, B2 0 g ae/ha, Sulfentrazone 420 g ai or ae/ha alone): 80% | plant injury at 420 g/ha (Corn (ZEAMX); Zea mays, post-emergence, 504 h, Trial 1 Trt 25, B2 0 g ae/ha, Sulfentrazone 420 g ai or ae/ha alone): 25% | plant injury at 140 g/ha (Corn (ZEAMX); Zea mays, post-emergence, 504 h, Sulfentrazone 140 g ai or ae/ha alone (B2 rate 0), Trial Bridge 3): 40% | plant injury at 210 g/ha (Corn (ZEAMX); Zea mays, post-emergence, 504 h, Sulfentrazone 210 g ai or ae/ha alone (B2 rate 0), Trial Bridge 3): 40%
